The experiment deals with L1210 leukemia ip in BDF1 mice, survival T/C. The experiment can be described thus: NCI In Vivo Anticancer Drug Screen. Data for tumor model L1210 Leukemia (intraperitoneal) in B6D2F1 (BDF1) mice. The note with it: endpoint: mean survival time, higher = longer survival. The essentials:
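Ratio derived from survival: compound-dosed mice over vehicle-dosed mice, all bearing a transplantable tumor.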

Where [1] appears, read: dose: 100.0 mg/kg/injection, schedule: Q01DX009 (ip), vehicle: Klucel (hydroxypropylcellulose) (HPC).
The mark [2] stands for this setting: dose: 100.0 mg/kg/injection, schedule: Q04DX003 (ip), vehicle: Klucel (hydroxypropylcellulose) (HPC).
Setting [3] is: dose: 200.0 mg/kg/injection, schedule: Q01DX009 (ip), vehicle: Klucel (hydroxypropylcellulose) (HPC).
Where [4] appears, read: dose: 200.0 mg/kg/injection, schedule: Q04DX003 (ip), vehicle: Klucel (hydroxypropylcellulose) (HPC).
Setting [5] is: dose: 400.0 mg/kg/injection, schedule: Q01DX009 (ip), vehicle: Klucel (hydroxypropylcellulose) (HPC).
The mark [6] stands for this setting: dose: 400.0 mg/kg/injection, schedule: Q04DX003 (ip), vehicle: Klucel (hydroxypropylcellulose) (HPC).
Where [7] appears, read: dose: 100.0 mg/kg/injection, schedule: Q01DX001 (ip), vehicle: saline.
Where [8] appears, read: dose: 200.0 mg/kg/injection, schedule: Q01DX001 (ip), vehicle: saline.
Where [9] appears, read: dose: 400.0 mg/kg/injection, schedule: Q01DX001 (ip), vehicle: saline.
Setting [10] is: dose: 100.0 mg/kg/injection, schedule: Q04DX003 (ip), vehicle: saline.
The mark [11] stands for this setting: dose: 200.0 mg/kg/injection, schedule: Q04DX003 (ip), vehicle: saline.
Setting [12] is: dose: 400.0 mg/kg/injection, schedule: Q04DX003 (ip), vehicle: saline.
The mark [13] stands for this setting: dose: 100.0 mg/kg/injection, schedule: Q01DX001 (ip), vehicle: Klucel (hydroxypropylcellulose) (HPC).
Where [14] appears, read: dose: 200.0 mg/kg/injection, schedule: Q01DX001 (ip), vehicle: Klucel (hydroxypropylcellulose) (HPC).
Where [15] appears, read: dose: 400.0 mg/kg/injection, schedule: Q01DX001 (ip), vehicle: Klucel (hydroxypropylcellulose) (HPC).
Setting [16] is: dose: 100.0 mg/kg/injection, schedule: Q01DX009 (ip), vehicle: saline with Tween-80.
[17] abbreviates: dose: 200.0 mg/kg/injection, schedule: Q01DX009 (ip), vehicle: saline with Tween-80.
Setting [18] is: dose: 400.0 mg/kg/injection, schedule: Q01DX009 (ip), vehicle: saline with Tween-80.
[19] abbreviates: dose: 50.0 mg/kg/injection, schedule: Q01DX001 (ip), vehicle: saline.
The mark [20] stands for this setting: dose: 400.0 mg/kg/injection, schedule: Q01DX001 (ip), vehicle: carboxymethylcellulose (CMC).
Where [21] appears, read: dose: 200.0 mg/kg/injection, schedule: Q01DX009 (ip), vehicle: saline.
Where [22] appears, read: dose: 400.0 mg/kg/injection, schedule: Q01DX009 (ip), vehicle: saline.
Where [23] appears, read: dose: 100.0 mg/kg/injection, schedule: Q01DX001 (ip), vehicle: carboxymethylcellulose (CMC).
The mark [24] stands for this setting: dose: 200.0 mg/kg/injection, schedule: Q01DX001 (ip), vehicle: carboxymethylcellulose (CMC).
[25] abbreviates: dose: 100.0 mg/kg/injection, schedule: Q01DX009 (ip), vehicle: saline.

Values joined by “and” are separate entries in the source; they are usually repeats but may differ in a detail not shown here. Identical values can stand only once. Inconclusive results and toxic doses are left out.

As for `Oc1ccc(-c2ccccc2)cc1CNC12CC3CC(CC(C3)C1)C2`, the T/C is, setting by setting: under setting [1], 100 % of control; under setting [2], 90 % of control; under setting [3], 88 % of control; under setting [4], 100 % of control; under setting [5], 93 % of control; under setting [6], 94 % of control.

On to `COC(=O)NCCOS(C)(=O)=O`, for which the T/C is 91 % of control under setting [7], 91 % of control under setting [8] and 88 % of control under setting [9].

In the case of `O=C(O)/C(=C/c1ccccc1)c1ccccc1`, the T/C (dose: 100.0 mg/kg/injection, schedule: Q04DX002 (ip), vehicle: saline with Tween-80) is 95 % of control and 96 % of control; the T/C (dose: 200.0 mg/kg/injection, schedule: Q04DX002 (ip), vehicle: saline with Tween-80) was 96 % of control and 88 % of control.

As to `CC1Cc2c(ccc3ccccc23)C1=O` (stereo unspecified), the T/C is 98 % of control under setting [7]; 94 % of control under setting [10]; 97 % of control under setting [8]; 94 % of control under setting [11]; 101 % of control under setting [9]; 95 % of control under setting [12].

In the case of `CCCOP(=O)(CCl)OCCC`, the T/C is, setting by setting: under setting [10], 101 % of control; under setting [11], 104 % of control; under setting [12], 101 % of control.

Turning to `CCOC(=O)C(CC(=O)O)C1=CCCc2ccccc21` (stereo unspecified), the T/C runs as follows: under setting [13], 96 % of control; under setting [1], 90 % of control; under setting [14], 104 % of control; under setting [3], 91 % of control; under setting [15], 90 % of control; under setting [5], 90 % of control.

Consider `Clc1cc(Cl)c2c(c1)COCO2`, for which the T/C (dose: 25.0 mg/kg/injection, schedule: Q01DX009 (ip), vehicle: Klucel (hydroxypropylcellulose) (HPC)) is 109 % of control; the T/C (dose: 50.0 mg/kg/injection, schedule: Q01DX009 (ip), vehicle: Klucel (hydroxypropylcellulose) (HPC)) is 104 % of control; the T/C under setting [1] is 106 % of control; the T/C under setting [2] was 97 % of control; the T/C under setting [4] is 102 % of control; the T/C under setting [6] was 111 % of control.

As to `CC(C)(c1cc(Cl)c(OCCO)c(Cl)c1)c1cc(Cl)c(OCCO)c(Cl)c1`, the T/C was 103 % of control under setting [16], 103 % of control under setting [17] and 95 % of control under setting [18].

For the molecule `O=S(=O)(Oc1ccc(-c2ccccc2)cc1)C1CC1c1ccccc1` (stereo unspecified), the T/C is 93 % of control under setting [7]; 93 % of control under setting [10]; 97 % of control under setting [8]; 96 % of control under setting [11]; 90 % of control under setting [9]; 91 % of control under setting [12].

Consider `Clc1ccc(-c2ncnc3c2Cc2ccccc2-3)cc1`, for which the T/C (dose: 100.0 mg/kg/injection, schedule: Q01DX009 (ip), vehicle: saline sonified) was 98 % of control; the T/C (dose: 100.0 mg/kg/injection, schedule: Q04DX003 (ip), vehicle: saline sonified) was 99 % of control; the T/C (dose: 200.0 mg/kg/injection, schedule: Q01DX009 (ip), vehicle: saline sonified) is 98 % of control; the T/C (dose: 200.0 mg/kg/injection, schedule: Q04DX003 (ip), vehicle: saline sonified) is 99 % of control; the T/C (dose: 400.0 mg/kg/injection, schedule: Q01DX009 (ip), vehicle: saline sonified) is 97 % of control; the T/C (dose: 400.0 mg/kg/injection, schedule: Q04DX003 (ip), vehicle: saline sonified) is 96 % of control.

`COc1ccc2c(c1)c1c(C)c3cnccc3c(C)c1n2C`: the T/C runs as follows: (dose: 25.0 mg/kg/injection, schedule: Q01DX001 (ip), vehicle: saline) 100 % of control; under setting [19], 102 % of control; (dose: 89.0 mg/kg/injection, schedule: Q01DX001 (ip), vehicle: carboxymethylcellulose (CMC)) 102 % of control; (dose: 265.0 mg/kg/injection, schedule: Q01DX001 (ip), vehicle: saline) 152 % of control; (dose: 267.0 mg/kg/injection, schedule: Q01DX001 (ip), vehicle: carboxymethylcellulose (CMC)) 107 % of control; under setting [20], 117 % of control. Further, under setting [9], the T/C is 124 % of control.

As for `CN(C)c1ccc([N+](=O)[O-])c2c1CCC2`, the T/C under setting [19] was 111 % of control, the T/C under setting [7] is 90 % of control, the T/C under setting [8] is 106 % of control and the T/C under setting [9] is 106 % of control.

For the molecule `CNC(=O)N1CC(C)OC(C)C1` (stereo unspecified), the T/C reads like this: under setting [10], 115 % of control; under setting [21], 92 % of control; under setting [11], 105 % of control; under setting [22], 107 % of control; under setting [12], 101 % of control.

On to `O=C(O)C1CCC(C(=O)c2ccc([N+](=O)[O-])cc2)CC1` (stereo unspecified), for which the T/C (dose: 100.0 mg/kg/injection, schedule: Q04DX003 (ip), vehicle: gum acacia) was 97 % of control; the T/C (dose: 200.0 mg/kg/injection, schedule: Q04DX003 (ip), vehicle: gum acacia) is 93 % of control; the T/C (dose: 400.0 mg/kg/injection, schedule: Q04DX003 (ip), vehicle: gum acacia) is 88 % of control.

With `CN(C)c1c(F)c(F)c(N=Nc2ccccc2)c(F)c1F`, the T/C is 98 % of control under setting [23], 114 % of control under setting [24] and 98 % of control under setting [20].

On to `O=C(c1ccccc1)C(O)c1ccccc1` (stereo unspecified), for which the T/C runs as follows: under setting [16], 89 % of control; under setting [17], 94 % of control; under setting [18], 100 % of control.

As for `O=C(C=P(c1ccccc1)(c1ccccc1)c1ccccc1)c1ccc(Br)cc1`, the T/C runs as follows: (dose: 50.0 mg/kg/injection, schedule: Q01DX001 (ip), vehicle: carboxymethylcellulose (CMC)) 99 % of control; under setting [23], 99 % of control; under setting [24], 96 % of control; under setting [20], 99 % of control.

As to `CCCC(CCC)(C(N)=O)C(=O)O`, the T/C is, setting by setting: under setting [25], 102 % of control; under setting [21], 100 % of control; under setting [22], 92 % of control.

As for `O=C(O)CCC(=O)Nc1cc(C(F)(F)F)ccc1Cl`, the T/C is 102 % of control (dose: 100.0 mg/kg/injection, schedule: Q04DX002 (ip), vehicle: saline); 97 % of control (dose: 200.0 mg/kg/injection, schedule: Q04DX002 (ip), vehicle: saline); 108 % of control (dose: 400.0 mg/kg/injection, schedule: Q04DX002 (ip), vehicle: saline).

Take `COc1ccc(COC(=O)Nc2cccc(Cl)c2)cc1`: the T/C under setting [13] is 111 % of control; the T/C under setting [1] was 93 % of control and 97 % of control; the T/C (dose: 100.0 mg/kg/injection, schedule: Q04DX002 (ip), vehicle: Klucel (hydroxypropylcellulose) (HPC)) is 100 % of control; the T/C under setting [2] was 108 % of control; the T/C under setting [14] is 101 % of control; the T/C under setting [3] is 90 % of control and 92 % of control. Besides, the T/C was 104 % of control (dose: 200.0 mg/kg/injection, schedule: Q04DX002 (ip), vehicle: Klucel (hydroxypropylcellulose) (HPC)); 102 % of control under setting [4]; 95 % of control under setting [15]; 93 % of control and 90 % of control under setting [5]; 111 % of control under setting [6].

Regarding `CCCCCCC(Cl)CCl` (stereo unspecified), the T/C (dose: 50.0 mg/kg/injection, schedule: Q01DX009 (ip), vehicle: saline) was 97 % of control; the T/C under setting [25] was 110 % of control; the T/C under setting [10] was 103 % of control; the T/C under setting [11] was 115 % of control; the T/C under setting [12] was 108 % of control.

Take `CC(=O)NC1C(OCc2ccccc2)OC(COCc2ccccc2)C(OCc2ccccc2)C1OCc1ccccc1` (stereo unspecified): the T/C runs as follows: (dose: 100.0 mg/kg/injection, schedule: Q01DX001 (ip), vehicle: saline with Tween-80) 86 % of control; (dose: 200.0 mg/kg/injection, schedule: Q01DX001 (ip), vehicle: saline with Tween-80) 94 % of control; (dose: 400.0 mg/kg/injection, schedule: Q01DX001 (ip), vehicle: saline with Tween-80) 94 % of control.

The record behind these values is PubChem BioAssay AID248 (DTP/NCI, 2004).
